Source: ChEMBL document CHEMBL3351975, “Design and synthesis of new series of coumarin-aminopyran derivatives possessing potential anti-depressant-like activity” (Bioorg Med Chem Lett, 2015)
Active and inactive are the calls of the source. The rule behind the calls is not given here.

Tests used:
Mus musculus [1] = test: Antidepressant-like activity in Swiss albino mouse assessed as decrease in immobility time at 0.5 mg/kg, ip measured for 5 mins by forced swimming test relative to control; assay type: functional; conditions: route intraperitoneal
Mus musculus [2] = test: Antidepressant-like activity in Swiss albino mouse assessed as decrease in immobility time at 1 mg/kg, ip measured for 5 mins by forced swimming test relative to control; assay type: functional, organism-based; design: dose 1 mg/kg
Mus musculus [3] = test: Antidepressant-like activity in Swiss albino mouse assessed as decrease in immobility time at 0.5 mg/kg, ip measured for 5 mins by tail suspension test relative to control; assay type: functional, organism-based; design: dose 0.5 mg/kg
Mus musculus [4] = test: Neurotoxicity in Swiss albino mouse assessed as effect on locomotor activity measured as horizontal activity at 0.5 mg/kg, ip measured for 2 min at 30 min intervals for 90 mins duration by open field test relative to control; assay type: toxicity, organism-based; design: dose 0.5 mg/kg, route intraperitoneal; conditions: in vivo, 1.5 h
Mus musculus [5] = test: Antidepressant-like activity in Swiss albino mouse assessed as decrease in immobility time at 0.25 mg/kg, ip measured for 5 mins by forced swimming test relative to control; assay type: functional; conditions: for inhibition in vivo at 0.25 mg/kg: route intraperitoneal
Mus musculus [6] = test: Neurotoxicity in Swiss albino mouse assessed as effect on locomotor activity measured as total distance travelled at 0.5 mg/kg, ip measured for 2 min at 30 min intervals for 90 mins duration by open field test relative to control; assay type: toxicity, organism-based; design: dose 0.5 mg/kg, route intraperitoneal; conditions: in vivo, 1.5 h
Mus musculus [7] = test: Neurotoxicity in Swiss albino mouse assessed as motor impairment effects at 1 mg/kg, ip measured for 30 to 180 mins duration by rotarod test relative to control; assay type: toxicity, organism-based; design: dose 1 mg/kg, route intraperitoneal; conditions: in vivo
Mus musculus [8] = test: Antidepressant-like activity in Swiss albino mouse assessed as decrease in immobility time at 20 mg/kg, ip measured for 5 mins by forced swimming test relative to control; assay type: functional; conditions: route intraperitoneal

Compound | inhibition in vivo at 0.5 mg/kg (Mus musculus [1]) | Activity (Mus musculus [2]) | Activity (Mus musculus [3]) | further results
CCC(C)c1cc(C2C(C#N)=C(N)OC3=C2C(=O)CC(C)(C)C3)cc2cc(-c3ccc(OC)cc3)c(=O)oc12 (centres undefined) | 26.9% | Active |  | 
COc1ccc(-c2cc3cc(C4C(C#N)=C(N)OC5=C4C(=O)CC(C)(C)C5)cc(C(C)C)c3oc2=O)cc1 (centres undefined) | 64.9% | Active | Active | Activity (Mus musculus [4]): Non-toxic; inhibition (Mus musculus [5]): inactive; Activity (Mus musculus [6]): Non-toxic; Activity (Mus musculus [7]): Non-toxic
COc1ccc(-c2cc3cc(C4C(C#N)=C(N)OC5=C4C(=O)CCC5)cc(C(C)C)c3oc2=O)cc1OC (centres undefined) | 57.2% | Active | Active | Activity (Mus musculus [4]): Non-toxic; inhibition in vivo at 0.25 mg/kg (Mus musculus [5]): 49%; Activity (Mus musculus [6]): Non-toxic; Activity (Mus musculus [7]): Non-toxic
CN(C)CCCN1c2ccccc2CCc2ccccc21 |  |  | Active | 
COc1cc(-c2cc3cc(C4C(C#N)=C(N)OC5=C4C(=O)CCC5)cc(C(C)(C)C)c3oc2=O)cc(OC)c1OC (centres undefined) | 5.33% |  |  | 
COc1ccc(-c2cc3cc(C4C(C#N)=C(N)OC5=C4C(=O)CC(C)(C)C5)cc(C(C)(C)C)c3oc2=O)cc1 (centres undefined) | 27.2% |  |  | 
COc1ccc(-c2cc3cc(C4C(C#N)=C(N)OC5=C4C(=O)CCC5)cc(C(C)(C)C)c3oc2=O)cc1 (centres undefined) | 30.6% | Active |  | 
COc1ccc(-c2cc3cc(C4C(C#N)=C(N)OC5=C4C(=O)CC(C)(C)C5)cc(C)c3oc2=O)cc1OC (centres undefined) | 10.4% |  |  | 
CCC(C)c1cc(C2C(C#N)=C(N)OC3=C2C(=O)CC(C)(C)C3)cc2cc(-c3ccc(OC)c(OC)c3)c(=O)oc12 (centres undefined) | 57.4% | Active | Active | Activity (Mus musculus [4]): Non-toxic; inhibition in vivo at 0.25 mg/kg (Mus musculus [5]): 35%; Activity (Mus musculus [6]): Non-toxic; Activity (Mus musculus [7]): Non-toxic
COc1ccc(-c2cc3cc(C4C(C#N)=C(N)OC5=C4C(=O)CCC5)cc(C(C)(C)C)c3oc2=O)cc1OC (centres undefined) | -16.6% |  |  | 
COc1cc(-c2cc3cc(C4C(C#N)=C(N)OC5=C4C(=O)CCC5)cc(C)c3oc2=O)cc(OC)c1OC (centres undefined) | 5.22% |  |  | 
COc1cc(-c2cc3cc(C4C(C#N)=C(N)OC5=C4C(=O)CC(C)(C)C5)cc(C(C)C)c3oc2=O)cc(OC)c1OC (centres undefined) | 29.2% | Active |  | 
CCC(C)c1cc(C2C(C#N)=C(N)OC3=C2C(=O)CCC3)cc2cc(-c3ccc(OC)cc3)c(=O)oc12 (centres undefined) | 35% | Active |  | 
CCC(C)c1cc(C2C(C#N)=C(N)OC3=C2C(=O)CCC3)cc2cc(-c3cc(OC)c(OC)c(OC)c3)c(=O)oc12 (centres undefined) | 56.1% | Active | Active | Activity (Mus musculus [4]): Non-toxic; inhibition (Mus musculus [5]): inactive; Activity (Mus musculus [6]): Non-toxic; Activity (Mus musculus [7]): Non-toxic
CNCCC(Oc1ccc(C(F)(F)F)cc1)c1ccccc1 (centres undefined) [FLUOXETINE] |  |  | Active | inhibition in vivo at 20 mg/kg (Mus musculus [8]): 69.8%
COc1cc(-c2cc3cc(C4C(C#N)=C(N)OC5=C4C(=O)CCC5)cc(C(C)C)c3oc2=O)cc(OC)c1OC (centres undefined) | 31.9% |  |  | 
COc1ccc(-c2cc3cc(C4C(C#N)=C(N)OC5=C4C(=O)CCC5)cc(C(C)C)c3oc2=O)cc1 (centres undefined) | 69.7% | Active | Active | Activity (Mus musculus [4]): Non-toxic; inhibition (Mus musculus [5]): inactive; Activity (Mus musculus [6]): Non-toxic; Activity (Mus musculus [7]): Non-toxic
COc1cc(-c2cc3cc(C4C(C#N)=C(N)OC5=C4C(=O)CC(C)(C)C5)cc(C(C)(C)C)c3oc2=O)cc(OC)c1OC (centres undefined) | 30.1% |  |  | 
COc1cc(-c2cc3cc(C4C(C#N)=C(N)OC5=C4C(=O)CC(C)(C)C5)cc(C)c3oc2=O)cc(OC)c1OC (centres undefined) | 6.37% |  |  | 
COc1ccc(-c2cc3cc(C4C(C#N)=C(N)OC5=C4C(=O)CC(C)(C)C5)cc(C(C)C)c3oc2=O)cc1OC (centres undefined) | 86.6% | Active | Active | Activity (Mus musculus [4]): Non-toxic; inhibition in vivo at 0.25 mg/kg (Mus musculus [5]): 41%; Activity (Mus musculus [6]): Non-toxic; Activity (Mus musculus [7]): Non-toxic
CCC(C)c1cc(C2C(C#N)=C(N)OC3=C2C(=O)CC(C)(C)C3)cc2cc(-c3cc(OC)c(OC)c(OC)c3)c(=O)oc12 (centres undefined) | 28.2% | Active |  | 
COc1ccc(-c2cc3cc(C4C(C#N)=C(N)OC5=C4C(=O)CC(C)(C)C5)cc(C(C)(C)C)c3oc2=O)cc1OC (centres undefined) | 22.5% |  |  | 
